Laboratory results as given in patent publication US20240190886A1, “BRM Targeting Compounds and Associated Methods of Use” (Prelude Therapeutics Incorporated, priority 2022, published 2024).

Assays:
SMARCA2 = molecular target: T1, SMARCA2 (Homo sapiens, UniProt P51531); experiment: SMARCA2 HiBiT degradation assay in HeLa cells; assay type: cell-based; conditions: 18 hours incubation, Nano-Glo HiBiT Lytic detection
T1 construct: SMARCA2-HiBiT knock-in Hela monoclonal cell (CS302366) and SMARCA4-HiBiT knock-in Hela monoclonal cell (CS3023226) were purchased from Promega; host or cells: HeLa SMARCA2-HiBiT knock-in monoclonal cells (heterozygous knock-in)
T1 sequence (P51531 whole entry): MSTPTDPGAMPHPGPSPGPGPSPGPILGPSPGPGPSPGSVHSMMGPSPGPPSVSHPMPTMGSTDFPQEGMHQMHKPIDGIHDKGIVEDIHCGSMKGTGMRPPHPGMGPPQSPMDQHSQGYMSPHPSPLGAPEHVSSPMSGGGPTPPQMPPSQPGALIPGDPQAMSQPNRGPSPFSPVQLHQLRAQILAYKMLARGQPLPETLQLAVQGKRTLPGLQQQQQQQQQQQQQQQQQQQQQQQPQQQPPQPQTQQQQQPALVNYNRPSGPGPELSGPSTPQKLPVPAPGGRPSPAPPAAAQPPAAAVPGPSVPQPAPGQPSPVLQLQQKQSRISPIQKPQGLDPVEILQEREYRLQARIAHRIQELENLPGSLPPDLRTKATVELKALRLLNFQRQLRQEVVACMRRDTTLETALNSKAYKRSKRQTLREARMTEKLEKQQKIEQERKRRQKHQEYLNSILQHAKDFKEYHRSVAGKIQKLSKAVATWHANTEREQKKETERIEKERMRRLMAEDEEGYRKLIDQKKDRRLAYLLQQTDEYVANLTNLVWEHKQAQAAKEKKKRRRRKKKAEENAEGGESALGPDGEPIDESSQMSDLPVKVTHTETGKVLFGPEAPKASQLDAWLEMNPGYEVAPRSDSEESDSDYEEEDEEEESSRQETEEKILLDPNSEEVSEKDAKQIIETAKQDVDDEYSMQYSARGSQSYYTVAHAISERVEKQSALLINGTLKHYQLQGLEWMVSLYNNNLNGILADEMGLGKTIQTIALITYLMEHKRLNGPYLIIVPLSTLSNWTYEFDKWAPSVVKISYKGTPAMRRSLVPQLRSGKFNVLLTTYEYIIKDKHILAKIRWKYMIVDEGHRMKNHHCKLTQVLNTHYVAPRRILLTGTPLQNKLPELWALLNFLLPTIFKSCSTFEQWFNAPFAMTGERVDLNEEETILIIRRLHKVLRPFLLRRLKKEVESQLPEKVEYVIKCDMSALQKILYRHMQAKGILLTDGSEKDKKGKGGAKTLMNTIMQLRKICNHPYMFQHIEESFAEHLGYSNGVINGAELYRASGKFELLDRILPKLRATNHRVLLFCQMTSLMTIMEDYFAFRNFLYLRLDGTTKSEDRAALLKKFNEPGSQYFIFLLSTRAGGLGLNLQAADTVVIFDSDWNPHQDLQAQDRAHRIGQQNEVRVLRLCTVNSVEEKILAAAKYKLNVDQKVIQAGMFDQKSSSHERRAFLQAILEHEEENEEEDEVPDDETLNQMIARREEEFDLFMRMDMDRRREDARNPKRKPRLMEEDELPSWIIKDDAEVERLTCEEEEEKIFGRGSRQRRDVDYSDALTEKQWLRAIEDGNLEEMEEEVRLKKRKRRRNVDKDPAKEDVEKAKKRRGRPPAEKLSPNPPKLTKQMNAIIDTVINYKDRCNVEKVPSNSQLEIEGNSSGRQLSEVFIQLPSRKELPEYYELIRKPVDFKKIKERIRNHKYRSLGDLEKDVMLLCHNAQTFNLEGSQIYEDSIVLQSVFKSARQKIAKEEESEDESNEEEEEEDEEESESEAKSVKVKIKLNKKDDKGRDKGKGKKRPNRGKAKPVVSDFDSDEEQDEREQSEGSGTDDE
Experimental: (§1) Example A. SMARCA2 HiBiT and SMARCA4 HiBiT Degradation Assay
(§2) HiBiT peptide knock-in of SMARCA2 in LgBiT expressing HEK293T cells was performed by CRISPR-mediated tagging system as described Promega. The homozygous HiBiT knock-in on c-terminus SMARCA2 was confirmed by sanger sequence. SMARCA2-HiBiT knock-in Hela monoclonal cell (CS302366) and SMARCA4-HiBiT knock-in Hela monoclonal cell (CS3023226) were purchased from Promega. The heterozygous HiBiT-knock-in was confirmed by sanger sequence in both SMARCA2-HiBiT and SMARCA4-HiBiT monoclonal cells.
(§3) SMARCA2 HiBiT and SMARCA4 HiBiT degradation assay in HeLa cells
(§4) Dispense 10 ul aliquot of prepared Hela-SMARCA2-HiBiT or Hela-SMARCA4-HiBiT cells (1:1 ratio of cells:Trypan Blue (#1450013, Bio-Rad)) onto cell counting slide (#145-0011, Bio-Rad) and obtain cell density and cell viability using cell counter (TC20, Bio-Rad). Remove appropriate volume of resuspended cells from culture flask to accommodate 2500 cells/well @20 μL/well. Transfer Hela-HiBiT cells to 50 mL conical (#430290, Corning). Spin down at 1000 rpm for 5 min using tabletop centrifuge (SPINCHRON 15, Beckman). Discard supernatant and resuspend cell pellet in modified EMEM (#30-2003, ATCC) cell culture media containing 10% FBS (F2422-500ML, Sigma), and 1X Penicillin/Streptomycin (200 g/L) (30-002-CI, Corning) to a cell density of 125,000 cells/mL. Dispense 20 μLof resuspended Hela-HiBit cells per well in 384-well TC treated plate (#12-565-343, Thermo Scientific) using standard cassette (#50950372, Thermo Scientific) on Multidrop Combi (#5840310, Thermo Scientific) inside laminar flow cabinet.
(§5) Compounds were dissolved in DMSO to make 10 mM stock and 3-fold series dilutions were further conducted keeping the highest concentration 10 RM. Dispense test compounds onto plates using digital liquid dispenser (D300E, Tecan). Incubate plates in humidified tissue culture incubator @37° C. for 18 hours. Add 20 μL of prepared Nano-Glo® HiBiT Lytic detection buffer (N3050, Promega) to each well of 384-well plate using small tube cassette (#24073295, Thermo Scientific) on Multidrop Combi, incubate @ RT for 30-60 min. Read plates on microplate reader (Envision 2105, PerkinElmer) using 384 well Ultra-Sensitive luminescence mode. Raw data files and compound information reports are swept into centralized data lake and deconvoluted using automated scripts designed by TetraScience, Inc. Data analysis, curve-fitting and reporting done in Dotmatics Informatics Suite using Screening Ultra module.
(§6) In Table 1, A=DC50<0.1 RM; B=0.1 μM≤DC50<1 μM and C=DC50>1 μM. In Table 4, A=Dmax>75% and B=50%<Dmax<75% and C=Dmax<50%.

SMARCA4 = molecular target: T2, SMARCA4 (Homo sapiens, UniProt P51532); experiment: SMARCA4 HiBiT degradation assay in HeLa cells; assay type: cell-based; conditions: 18 hours incubation, Nano-Glo HiBiT Lytic detection
T2 construct: SMARCA2-HiBiT knock-in Hela monoclonal cell (CS302366) and SMARCA4-HiBiT knock-in Hela monoclonal cell (CS3023226) were purchased from Promega; host or cells: HeLa SMARCA4-HiBiT knock-in monoclonal cells (heterozygous knock-in)
T2 sequence (P51532 whole entry): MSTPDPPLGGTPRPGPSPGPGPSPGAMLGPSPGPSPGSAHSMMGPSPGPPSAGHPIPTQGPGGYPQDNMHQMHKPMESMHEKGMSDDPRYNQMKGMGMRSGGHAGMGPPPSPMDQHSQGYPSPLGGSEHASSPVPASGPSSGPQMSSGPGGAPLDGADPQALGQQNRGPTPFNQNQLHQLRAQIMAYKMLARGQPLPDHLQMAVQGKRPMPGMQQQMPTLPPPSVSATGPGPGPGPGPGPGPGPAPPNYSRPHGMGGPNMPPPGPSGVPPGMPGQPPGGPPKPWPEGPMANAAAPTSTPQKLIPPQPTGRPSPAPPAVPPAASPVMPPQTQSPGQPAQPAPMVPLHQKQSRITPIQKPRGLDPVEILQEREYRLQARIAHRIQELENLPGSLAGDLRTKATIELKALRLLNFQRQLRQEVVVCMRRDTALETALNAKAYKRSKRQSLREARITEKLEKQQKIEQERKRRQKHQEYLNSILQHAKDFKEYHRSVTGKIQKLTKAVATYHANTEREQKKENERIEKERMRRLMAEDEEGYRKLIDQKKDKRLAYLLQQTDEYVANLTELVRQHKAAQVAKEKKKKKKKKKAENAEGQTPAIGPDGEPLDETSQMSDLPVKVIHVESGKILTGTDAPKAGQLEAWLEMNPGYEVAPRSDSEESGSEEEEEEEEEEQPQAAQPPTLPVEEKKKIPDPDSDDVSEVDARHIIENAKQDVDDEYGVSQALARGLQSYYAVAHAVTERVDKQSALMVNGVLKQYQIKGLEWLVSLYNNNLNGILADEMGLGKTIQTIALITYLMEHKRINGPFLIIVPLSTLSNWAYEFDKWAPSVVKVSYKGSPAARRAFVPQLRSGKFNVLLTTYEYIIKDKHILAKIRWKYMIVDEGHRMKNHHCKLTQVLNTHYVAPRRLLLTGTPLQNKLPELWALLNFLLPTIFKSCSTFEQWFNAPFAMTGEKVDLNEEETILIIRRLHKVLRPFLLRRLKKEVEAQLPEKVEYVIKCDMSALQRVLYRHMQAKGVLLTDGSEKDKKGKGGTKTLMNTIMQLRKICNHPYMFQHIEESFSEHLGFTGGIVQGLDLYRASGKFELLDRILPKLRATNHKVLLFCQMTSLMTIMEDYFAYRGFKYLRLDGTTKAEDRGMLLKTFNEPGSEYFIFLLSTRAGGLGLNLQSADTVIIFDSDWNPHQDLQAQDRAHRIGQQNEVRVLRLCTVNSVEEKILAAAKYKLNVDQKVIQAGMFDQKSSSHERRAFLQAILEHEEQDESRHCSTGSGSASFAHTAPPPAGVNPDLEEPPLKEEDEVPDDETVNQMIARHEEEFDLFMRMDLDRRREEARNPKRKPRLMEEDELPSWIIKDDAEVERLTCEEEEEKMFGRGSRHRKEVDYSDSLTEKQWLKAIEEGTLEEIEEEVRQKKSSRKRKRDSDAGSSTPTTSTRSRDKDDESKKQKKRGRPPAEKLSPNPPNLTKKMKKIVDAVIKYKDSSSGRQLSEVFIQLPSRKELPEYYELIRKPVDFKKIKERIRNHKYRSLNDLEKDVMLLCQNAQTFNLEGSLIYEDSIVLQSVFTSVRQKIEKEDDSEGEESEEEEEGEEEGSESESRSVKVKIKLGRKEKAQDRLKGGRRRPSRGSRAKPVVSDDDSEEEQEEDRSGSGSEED
Experimental: as §1, §2, §3, §4, §5, §6

Compound | DC50 (SMARCA2) | DC50 (SMARCA4) | Dmax (SMARCA2) | Dmax (SMARCA4)
C[C@@H]1CN(CC2CCN(c3ccc(C(=O)NC4CCC(=O)NC4=O)c(F)c3)CC2)C[C@H](C)N1C(=O)N1CCN2c3cc(-c4ccccc4O)nnc3NC[C@H]2C1 (stereo partly drawn) [Example 1, N-(2,6-dioxopiperidin-3-yl)-2-fluoro-4-(4-(((3R,5S)-4-((S)-2-(2-hydroxyphenyl)-6,6a,7,8,9,10-hexahydro-5H-pyrazino[1′,2′:4,5]pyrazino[2,3-c]pyridazine-8-carbonyl)-3,5-dimethylpiperazin-1-yl)methyl)piperidin-1-yl)benzamide] | < 100 nM | > 1000 nM |  | 
C[C@@H]1CN(CC2CCN(c3ccc4ncn(C5CCC(=O)NC5=O)c(=O)c4c3)CC2)C[C@H](C)N1C(=O)N1CCN2c3cc(-c4ccccc4O)nnc3NC[C@H]2C1 (stereo partly drawn) [Example 2, 3-(6-(4-(((3R,5S)-4-((S)-2-(2-hydroxyphenyl)-6,6a,7,8,9,10-hexahydro-5H-pyrazino[1′,2′:4,5]pyrazino[2,3-c]pyridazine-8-carbonyl)-3,5-dimethylpiperazin-1-yl)methyl)piperidin-1-yl)-4-oxoquinazolin-3(4H)-yl)piperidine-2,6-dione] | < 100 nM | 100 to 1000 nM | 50 to 75% | 50 to 75%
C[C@@H]1CN(CC2CCN(c3ccc4c(=O)n(C5CCC(=O)NC5=O)ncc4c3)CC2)C[C@H](C)N1C(=O)N1CCN2c3cc(-c4ccccc4O)nnc3NC[C@H]2C1 (stereo partly drawn) [Example 3, 3-(6-(4-(((3R,5S)-4-((S)-2-(2-hydroxyphenyl)-6,6a,7,8,9,10-hexahydro-5H-pyrazino[1′,2′:4,5]pyrazino[2,3-c]pyridazine-8-carbonyl)-3,5-dimethylpiperazin-1-yl)methyl)piperidin-1-yl)-1-oxophthalazin-2(1H)-yl)piperidine-2,6-dione] | < 100 nM | 100 to 1000 nM | 50 to 75% | < 50%
C[C@@H]1CN(CC2CCN(c3ccc4cn(C5CCC(=O)NC5=O)nc4c3)CC2)C[C@H](C)N1C(=O)N1CCN2c3cc(-c4ccccc4O)nnc3NC[C@H]2C1 (stereo partly drawn) [Example 4, 3-(6-(4-(((3S,5R)-4-((S)-2-(2-hydroxyphenyl)-6,6a,7,8,9,10-hexahydro-5H-pyrazino[1′,2′:4,5]pyrazino[2,3-c]pyridazine-8-carbonyl)-3,5-dimethylpiperazin-1-yl)methyl)piperidin-1-yl)-2H-indazol-2-yl)piperidine-2,6-dione] | < 100 nM | < 100 nM | 50 to 75% | 50 to 75%
C[C@@H]1CN(CC2CCN(c3ccc4cnn(C5CCC(=O)NC5=O)c4c3)CC2)C[C@H](C)N1C(=O)N1CCN2c3cc(-c4ccccc4O)nnc3NC[C@H]2C1 (stereo partly drawn) [Example 5, 3-(6-(4-(((3R,5S)-4-((S)-2-(2-hydroxyphenyl)-6,6a,7,8,9,10-hexahydro-5H-pyrazino[1′,2′:4,5]pyrazino[2,3-c]pyridazine-8-carbonyl)-3,5-dimethylpiperazin-1-yl)methyl)piperidin-1-yl)-1H-indazol-1-yl)piperidine-2,6-dione] | 100 to 1000 nM | > 1000 nM | < 50% | < 50%
O=C1CCC(n2ncc3ccc(N4CCC(CN5C[C@@H]6[C@H](C5)[C@H]6CN5CCN6c7cc(-c8ccccc8O)nnc7NC[C@H]6C5)CC4)cc32)C(=O)N1 (stereo partly drawn) [Example 6, 3-(6-(4-(((1R,5S,6r)-6-(((S)-2-(2-hydroxyphenyl)-5,6,6a,7,9,10-hexahydro-8H-pyrazino[1′,2′:4,5]pyrazino[2,3-c]pyridazin-8-yl)methyl)-3-azabicyclo[3.1.0]hexan-3-yl)methyl)piperidin-1-yl)-1H-indazol-1-yl)piperidine-2,6-dione] | 100 to 1000 nM | > 1000 nM | < 50% | < 50%
C[C@@H]1CN(CC2CCN(c3ccnc(C(=O)NC4CCC(=O)NC4=O)c3)CC2)C[C@H](C)N1C(=O)N1CCN2c3cc(-c4ccccc4O)nnc3NC[C@H]2C1 (stereo partly drawn) [Example 7, N-(2,6-dioxopiperidin-3-yl)-4-[4-[[(3R,5S)-4-[(1OS)-4-(2-hydroxyphenyl) 1,5,6,8,12-pentazatricyclo[8.4.0.02,7]tetradeca-2,4,6-triene-12-carbonyl]-3,5-dimethylpiperazin-1-yl]methyl]piperidin-1-yl]pyridine-2-carboxamide] | < 100 nM | > 1000 nM | 50 to 75% | 

The next lines start with the values.

DC50 (SMARCA2) | DC50 (SMARCA4) | Dmax (SMARCA2) | Dmax (SMARCA4) | Compound
< 100 nM | < 100 nM | 50 to 75% | 50 to 75% | Cn1nc(N2CCC(=O)NC2=O)c2ccc(N3CCC(CN4C[C@@H]5[C@H](C4)[C@H]5CN4CCN5c6cc(-c7ccccc7O)nnc6NC[C@H]5C4)CC3)cc21 [Example 8, 1-[6-[4-[[(1S,5R)-6-[[(10S)-4-(2-hydroxyphenyl)-1,5,6,8,12-pentazatricyclo[8.4.0.02,7]tetradeca-2,4,6-trien-12-yl]methyl]-3-azabicyclo[3.1.0]hexan-3-yl]methyl]piperidin-1-yl]-1-methylindazol-3-yl]-1,3-diazinane-2,4-dione]
100 to 1000 nM | < 100 nM | < 50% | 50 to 75% | CC[C@]12CNc3nnc(-c4ccccc4O)cc3N1C[C@H](Oc1ccc(CN3CCN(c4ccc(N5CCC(=O)NC5=O)cc4)CC3)cn1)C2 [Example 9, 1-(4-(4-((6-(((6aS,8R)-6a-ethyl-2-(2-hydroxyphenyl)-5,6,6a,7,8,9-hexahydro-pyrrolo[1′,2′:4,5]pyrazino[2,3-c]pyridazin-8-yl)oxy)pyridin-3-yl)methyl)piperazin-1-yl)phenyl)dihydropyrimidine-2,4(1H,3H)-dione]
< 100 nM | < 100 nM | > 75% | > 75% | CC[C@]12CNc3nnc(-c4ccccc4O)cc3N1C[C@H](Oc1ccc(CN3CCN(c4ccc(NC5CCC(=O)NC5=O)cc4)CC3)cn1)C2 (stereo partly drawn) [Example 10, 3-((4-(4-((6-(((6aS,8R)-6a-ethyl-2-(2-hydroxyphenyl)-5,6,6a,7,8,9-hexahydro-pyrrolo[1′,2′:4,5]pyrazino[2,3-c]pyridazin-8-yl)oxy)pyridin-3-yl)methyl)piperazin-1-yl)phenyl)amino)piperidine-2,6-dione]
< 100 nM | < 100 nM | > 75% | > 75% | CC[C@]12CNc3nnc(-c4ccccc4O)cc3N1C[C@H](Oc1ccc(CN3CCN(c4ccc(NC5CCC(=O)NC5=O)cc4F)CC3)cn1)C2 (stereo partly drawn) [Example 11, 3-((4-(4-((6-(((6aS,8R)-6a-ethyl-2-(2-hydroxyphenyl)-5,6,6a,7,8,9-hexahydro-pyrrolo[1′,2′:4,5]pyrazino[2,3-c]pyridazin-8-yl)oxy)pyridin-3-yl)methyl)piperazin-1-yl)-3-fluorophenyl)amino)piperidine-2,6-dione]
< 100 nM | 100 to 1000 nM | 50 to 75% | < 50% | CC[C@]12CNc3nnc(-c4ccccc4O)cc3N1C[C@H](Oc1ccc(CN3CCN(c4ccc(C(=O)NC5CCC(=O)NC5=O)cc4)CC3)cn1)C2 (stereo partly drawn) [Example 12, N-(2,6-dioxopiperidin-3-yl)-4-(4-((6-(((6aS,8R)-6a-ethyl-2-(2-hydroxyphenyl)-5,6,6a,7,8,9-hexahydropyrrolo[1′,2′:4,5]pyrazino[2,3-c]pyridazin-8-yl)oxy)pyridin-3-yl)methyl)piperazin-1-yl)benzamide]
100 to 1000 nM | > 1000 nM | < 50% | < 50% | CC[C@]12CNc3nnc(-c4ccccc4O)cc3N1C[C@H](Oc1ccc(CN3CCN(c4ccc(C(=O)NC5CCC(=O)NC5=O)c(F)c4)CC3)cn1)C2 (stereo partly drawn) [Example 13, N-(2,6-dioxopiperidin-3-yl)-4-(4-((6-(((6aS,8R)-6a-ethyl-2-(2-hydroxyphenyl)-5,6,6a,7,8,9-hexahydropyrrolo[1′,2′:4,5]pyrazino[2,3-c]pyridazin-8-yl)oxy)pyridin-3-yl)methyl)piperazin-1-yl)-2-fluorobenzamide]
